± gives the standard deviation of the averaged measurements.
Assays:
Assay in all cases: drug sensitivity score (DSS) (DSS score); higher = more sensitive (stronger growth inhibition); extreme values may be limits of the assay
[1] = system: Ba/F3 P210-BCR-ABL1 RUNX1-/- (mouse)
Outline: (§1)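 Mouse Ba/F3 cells carrying P210-BCR-ABL1, CRISPR/Cas9-edited at runx1 exon 4 or edited-control clones, were screened against a 528-compound library on pre-printed 384-well plates. Each compound ran at five concentrations spanning a 10,000-fold range, with 10,000 cells per well in RPMI with 10% FBS for 72 h at 37 °C and 5% CO2. CellTiter-Glo luminescence was scaled between vehicle and positive-control wells. A drug sensitivity score summarised each dose-response, averaged over two replicates.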

[2] = system: Ba/F3 P210-BCR-ABL1 RUNX1wt/wt control (mouse)
Outline: as §1

[3] = system: Ba/F3 P210-BCR-ABL1 RUNX1-/mut (mouse)
Outline: as §1

| SMILES | drug sensitivity score [1] | drug sensitivity score [2] | drug sensitivity score [3] |
| --- | --- | --- | --- |
| Nc1cc(F)ccc1NC(=O)c1ccc(CNC(=O)/C=C/c2cccnc2)cc1 [Tucidinostat] | 9.05 ± 2.8 | 4.9 ± 0.14 | 8.05 ± 4.6 |
| COC(=O)c1ccc2c(c1)[nH]c1ncnc(NCCCN3CCCCC3)c12 [UM729] | 4.1 ± 1.1 | 0 | 3.5 ± 4.5 |
| COc1cc2c(NC3CCN(C(C)C)CC3)nc(C3CCCCC3)nc2cc1OCCCN1CCCC1 [UNC0638] | 9.2 ± 0.57 | 1.45 ± 0.64 | 7.75 ± 2 |
| COc1cc2c(NC3CCN(C(C)C)CC3)nc(N3CCC(F)(F)CC3)nc2cc1OCCCN1CCCC1 [UNC0642] | 5.35 ± 1.6 | 0.15 ± 0.071 | 6.5 ± 3 |
| O=C(c1ccc(C(=O)N2CCC(N3CCCC3)CC2)c(Nc2ccccc2)c1)N1CCC(N2CCCC2)CC1 [UNC1215] | 0 | 0 | 0 |
| CCCCNc1ncc(C(=O)NCc2ccc(-n3ccnc3)cc2)c(NC2CCC(O)CC2)n1 (centres undefined) [UNC2881] | 0.3 ± 0.42 | 0 | 0 |
| NC(=O)c1cccc(-c2cccc(OC(=O)NC3CCCCC3)c2)c1 [URB597] | 0 | 0.05 ± 0.071 | 0.15 ± 0.21 |
| CC(C)Nc1cc(-c2c[nH]c(C(=O)N[C@H](CO)c3cccc(Cl)c3)c2)c(Cl)cn1 [Ulixertinib] | 7.25 ± 0.071 | 2.45 ± 1.6 | 5.6 ± 0.42 |
| CC[C@@H]1CN(C(=O)NCC(F)(F)F)C[C@@H]1c1cnc2cnc3[nH]ccc3n12 [Upadacitinib] | 0.75 ± 1.1 | 5.35 ± 3 | 0.05 ± 0.071 |
| Cn1ncc(Cl)c1-c1cc(C(=O)N[C@H](CN)Cc2ccc(F)c(F)c2)oc1Cl [Uprosertib] | 0.4 ± 0.57 | 0 | 0 |
| CS(=O)(=O)c1ccc(-c2cnc(N)c(C(=O)Nc3ccccc3)n2)cc1 [VE-821] | 5.55 ± 4.5 | 1.8 | 4.3 ± 4.8 |
| O=C(O)CC1CC(c2ccccc2)=NO1 (centres undefined) [VGX-1027] | 0.9 ± 1.3 | 0 | 0.05 ± 0.071 |
| C=CC(=O)N1CC/C(=C\c2ccc(F)c([N+](=O)[O-])c2)C(=O)/C(=C/c2ccc(F)c([N+](=O)[O-])c2)C1 [VLX1570] | 23.1 ± 0.78 | 15.8 ± 0.92 | 23.5 ± 4.7 |
| CNC(=O)c1ccccc1Nc1cc(Nc2ccc(N3CCOCC3)cc2OC)ncc1C(F)(F)F [VS-4718] | 8.65 ± 0.49 | 4.2 ± 0.28 | 7.65 ± 1.1 |
| CCCC(CCC)C(=O)O [Valproic acid] | 2.3 ± 0.28 | 0 | 0.75 ± 0.071 |
| CCc1c(C(=O)C(N)=O)c2c(OCC(=O)O)cccc2n1Cc1ccccc1 [Varespladib] | 0 | 0 | 0.65 ± 0.92 |
| C[C@@H]1COC(Nc2ccc3ncnc(Nc4ccc(OCc5nccs5)c(Cl)c4)c3c2)=N1 [Varlitinib] | 1.35 ± 1.9 | 0 | 1.15 ± 1.6 |
| CC1(C)CCC(CN2CCN(c3ccc(C(=O)NS(=O)(=O)c4ccc(NCC5CCOCC5)c([N+](=O)[O-])c4)c(Oc4cnc5[nH]ccc5c4)c3)CC2)=C(c2ccc(Cl)cc2)C1 [Venetoclax] | 0 | 1.4 ± 1.4 | 1.05 ± 1.5 |
| O=C(/C=C\n1cnc(-c2cc(C(F)(F)F)cc(C(F)(F)F)c2)n1)NNc1ccccn1 [Verdinexor] | 14.4 ± 0.92 | 9.1 ± 0.42 | 13.3 ± 0.57 |
| CCCCOc1nc(N)c2c(n1)N(Cc1cccc(CN3CCCC3)c1)CC(=O)N2 [Vesatolimod] | 2.65 ± 3.8 | 1.65 ± 0.35 | 3.25 ± 3.8 |
| COc1cccc(-c2ccc(NC(=O)C3=C(C(=O)O)CCC3)c(F)c2)c1 [Vidofludimus] | 2.2 ± 2.8 | 0 | 2.4 ± 1.7 |
| CC[C@]1(O)C[C@H]2CN(CCc3c([nH]c4ccccc34)[C@@](C(=O)OC)(c3cc4c(cc3OC)N(C=O)[C@H]3[C@@](O)(C(=O)OC)[C@H](OC(C)=O)[C@]5(CC)C=CCN6CC[C@]43[C@@H]65)C2)C1 [Vincristine] | 23.9 ± 4.2 | 13.9 ± 2.3 | 23.1 ± 2.5 |
| CC[C@]12C=CCN3CC[C@@]4(c5cc([C@@]6(C(=O)OC)C[C@@H]7C[C@@H](C(C)(F)F)CN(Cc8c6[nH]c6ccccc86)C7)c(OC)cc5N(C)[C@H]4[C@@](O)(C(=O)OC)[C@@H]1OC(C)=O)[C@@H]32 [Vinflunine] | 4.4 ± 0.42 | 3.55 ± 0.21 | 3.95 ± 0.49 |
| CCC1=C[C@@H]2CN(C1)Cc1c([nH]c3ccccc13)[C@@](C(=O)OC)(c1cc3c(cc1OC)N(C)[C@H]1[C@@](O)(C(=O)OC)[C@H](OC(C)=O)[C@]4(CC)C=CCN5CC[C@]31[C@@H]54)C2 [Vinorelbine] | 38 ± 2.1 | 19.1 | 36.1 ± 1.1 |
| CNC(=O)c1cccc(-c2ccc3c(N4CCOC[C@@H]4C)nc(N4CCOC[C@@H]4C)nc3n2)c1 [Vistusertib] | 18.8 ± 0.35 | 11 | 16.1 ± 3.8 |
| CC[C@@H]1C(=O)N(C)c2cnc(Nc3ccc(C(=O)N[C@H]4CC[C@H](N5CCN(CC6CC6)CC5)CC4)cc3OC)nc2N1C(C)C [Volasertib] | 11.15 ± 0.071 | 5.9 ± 0.28 | 10.3 ± 0.42 |
| FC(F)c1nc2ccccc2n1-c1nc(N2CCOCC2)nc(N2CCOCC2)n1 [ZSTK474] | 9.85 ± 2.6 | 5.3 ± 0.85 | 9.75 ± 5.9 |
| Cc1sc2c(c1C)C(c1ccc(Cl)cc1)=N[C@@H](CC(=O)NCCCCNC(=O)COc1cccc3c1C(=O)N(C1CCC(=O)NC1=O)C3=O)c1nnc(C)n1-2 (some centres undefined) [dBET1] | 18.8 ± 2.1 | 11.3 ± 1.5 | 19.1 ± 5.4 |

Source: the supplement of paper PMC8024199
